US6630125B2, “18F-labeled choline analogs” (priority 2000, dated 2003)

System: patients with brain tumors
Experiment: PET imaging in patients with brain tumors
Assay type: in vivo, human
Details: 5 patients with resected brain tumors, after injection
Protocol: In breast cancer patients, whole-body PET scans were obtained, beginning at 10 min post-administration of FCH. In patients with brain tumors, PET scans of the brain were obtained, beginning at 5 min post-administration of FCH.
PET imaging was performed in 5 patients with resected brain tumors for evaluation of recurrence of cancer. Dynamic images were obtained over the brain for the first 15 min after injection of FCH (2.5-6 mCi). Transmission scans were acquired before injection of radiotracer for purposes of attenuation correction. […] Radioactivity concentration in normal brain tissue was very low, allowing excellent delineation of the tumor. […] (See FIG. 12)

## C[N+](C)(CF)CCO.[Cl-] [FCH, dimethylfluoromethyl-2-hydroxyethylammonium chloride]
  time to plateau of radiotracer concentration in the tumor: ≤ 5 min
